Results taken from ChEMBL document CHEMBL1128931, “Synthesis and biological evaluation of pyrido[2,3-b]pyrazine and pyrido[2,3-b]pyrazine-n-oxide as selective glycine antagonists” (Bioorg Med Chem Lett, 1996).
pKi: −log10 of the molar value.

Tests used:
[1] = molecular target: Glutamate receptor ionotropic, NMDA 1 (Rattus norvegicus, UniProt P35439); experiment: In vitro binding affinity for glycine site on the NMDA receptor.
[2] = test system: Rattus norvegicus; experiment: Compound was evaluated in vivo for antagonistic activity against glycine site in NMDA induced convulsion model in rats after iv administration.; assay type: functional
[3] = test system: Rattus norvegicus; experiment: Compound was evaluated in vivo for antagonistic activity against glycine site in NMDA induced convulsion model in rats after ip administration.; assay type: functional

## Oc1nc2ccc(Cl)nc2nc1O
[1]
  pKi: 5.21

## Oc1nc2nc(Cl)c(Cl)c(Cl)c2nc1O
[1]
  pKi: 6.96

## Oc1nc2cc(C(F)(F)F)c(Cl)nc2nc1O
[1]
  pKi: 6.37
[2]
  ED50: 15 mg/kg

## [O-][n+]1c(Cl)c(Cl)cc2nc(O)c(O)nc21
[1]
  pKi: 6.95
[3]
  ED50: 24 mg/kg
[2]
  ED50: 14 mg/kg

## Cc1c(Br)c(Cl)[n+]([O-])c2nc(O)c(O)nc12
[1]
  pKi: 5.52

## Cc1c(Cl)c(Cl)[n+]([O-])c2nc(O)c(O)nc12
[1]
  pKi: 5.50
[3]
  ED50: 30 mg/kg

## [O-][n+]1c(Cl)c(Br)cc2nc(O)c(O)nc21
[1]
  pKi: 6.95
[3]
  ED50: 45 mg/kg
[2]
  ED50: 18 mg/kg

## Cc1c(Br)c(Cl)nc2nc(O)c(O)nc12
[1]
  pKi: 6.55
[2]
  ED50: 10 mg/kg

## Cc1c(Br)cnc2nc(O)c(O)nc12
[1]
  pKi: 5.80

## Cc1c(Cl)c[n+]([O-])c2nc(O)c(O)nc12
[1]
  pKi: 6.43
[3]
  ED50: 7 mg/kg
[2]
  ED50: 3 mg/kg

## CCCc1nc2nc(O)c(O)nc2c(C)c1Cl
[1]
  pKi: 5.56

## [O-][n+]1cc(I)cc2nc(O)c(O)nc21
[1]
  pKi: 6.13
[3]
  ED50: 21 mg/kg

## Oc1nc2cc(I)c(Cl)nc2nc1O
[1]
  pKi: 6.69

## Cc1c(I)cc2nc(O)c(O)nc2[n+]1[O-]
[1]
  pKi: 6.65

## [O-][n+]1cc(C(F)(F)F)cc2nc(O)c(O)nc21
[1]
  pKi: 6.37
[2]
  ED50: 15 mg/kg

## Cc1c(I)cnc2nc(O)c(O)nc12
[1]
  pKi: 5.75

## Cc1c(Cl)cnc2nc(O)c(O)nc12
[1]
  pKi: 5.54
[3]
  ED50: 20 mg/kg

## Cc1c(I)c[n+]([O-])c2nc(O)c(O)nc12
[1]
  pKi: 6.04
[3]
  ED50: 30 mg/kg

## [O-][n+]1cc(C(F)(F)F)c(Cl)c2nc(O)c(O)nc21
[1]
  pKi: 5.43
[3]
  ED50: 50 mg/kg

## Cc1c(Br)c[n+]([O-])c2nc(O)c(O)nc12
[1]
  pKi: 6.27
[3]
  ED50: 9 mg/kg
[2]
  ED50: 5 mg/kg

## [O-][n+]1cc(Cl)cc2nc(O)c(O)nc21
[1]
  pKi: 6.29

## [O-][n+]1c(Cl)ccc2nc(O)c(O)nc21
[1]
  pKi: 5.33

## Oc1nc2ncc(C(F)(F)F)c(Cl)c2nc1O
[1]
  pKi: 5.80

## Cc1nc2nc(O)c(O)nc2cc1I
[1]
  pKi: 6.33

## Cc1nc2nc(O)c(O)nc2c(C)c1Cl
[1]
  pKi: 6.09

## Oc1nc2cc(Cl)c(Cl)nc2nc1O
[1]
  pKi: 6.73
[3]
  ED50: 41 mg/kg
[2]
  ED50: 0.7 mg/kg

## Cc1c(Cl)c(Cl)nc2nc(O)c(O)nc12
[1]
  pKi: 6.72

## Oc1nc2cc(Br)c(Cl)nc2nc1O
[3]
  ED50: 100 mg/kg
[2]
  ED50: 20 mg/kg

## Oc1nc2cc(C(F)(F)F)cnc2nc1O
[1]
  pKi: 6.30
[3]
  ED50: 27 mg/kg
[2]
  ED50: 13 mg/kg

## [O-][n+]1c(Cl)c(I)cc2nc(O)c(O)nc21
[1]
  pKi: 6.68

## CCCc1c(Cl)cc2nc(O)c(O)nc2[n+]1[O-]
[1]
  pKi: 6.34

## [O-][n+]1c(Cl)c(C(F)(F)F)cc2nc(O)c(O)nc21
[1]
  pKi: 6.29
[3]
  ED50: 60 mg/kg
[2]
  ED50: 30 mg/kg

## CCCc1nc2nc(O)c(O)nc2cc1Cl
[1]
  pKi: 5.82
